Assay results: patent US11339161B2, “Triazolo pyridines as modulators of gamma-secretase” (Boehringer Ingelheim International GmbH, priority 2017, dated 2022)
Where two headings read alike, the source gives them in different places.

Key:
[1] = biological target: CSF1R (FMS) (Homo sapiens, UniProt P07333); test: Z'-LYTE SelectScreen biochemical kinase assay CSF1R (FMS)
Description: (§1) Thermo Fisher Scientific SelectScreen™ Biochemical Kinase Profiling Service Z′-LYTE™ Screening Protocol and Assay Conditions Assay Theory
(§2) The […] biochemical assay employs a fluorescence-based, coupled-enzyme format and is based on the differential sensitivity of phosphorylated and non-phosphorylated peptides to proteolytic cleavage. The peptide substrate is labeled with two fluorophores—one at each end—that make up a FRET pair. In the primary reaction, the kinase transfers the gamma-phosphate of ATP to a single tyrosine, serine or threonine residue in a synthetic FRET-peptide. In the secondary reaction, a site-specific protease recognizes and cleaves non-phosphorylated FRET-peptides. Phosphorylation of FRET-peptides suppresses cleavage by the Development Reagent. Cleavage disrupts FRET between the donor (i.e., coumarin) and acceptor (i.e., fluorescein) fluorophores on the FRET-peptide, whereas uncleaved, phosphorylated FRET-peptides maintain FRET. A ratiometric method, which calculates the ratio (Emission Ratio=Coumarin emission (445 nm)/Fluorescein emission (520 nm)) of donor emission to acceptor emission after excitation of the donor fluorophore at 400 nm, is used to quantitate reaction progress, as shown in the equation below. A significant benefit of this ratiometric method for quantitating reaction progress is the elimination of well-to-well variations in FRET-peptide concentration and signal intensities. As a result, the assay yields very high Z′-factor values (>0.7) at a low percent phosphorylation. Both cleaved and uncleaved FRET-peptides contribute to the fluorescence signals and therefore to the Emission Ratio. The extent of phosphorylation of the FRET-peptide can be calculated from the Emission Ratio. The Emission Ratio will remain low if the FRET-peptide is phosphorylated (i.e., no kinase inhibition) and will be high if the FRET-peptide is non-phosphorylated (i.e., kinase inhibition).
(§3) The Test Compounds are screened in 1% DMSO (final) in the well. For 10 point titrations, 3-fold serial dilutions are conducted from the starting concentration of the customer's choosing.
(§4) All Peptide/Kinase Mixtures are diluted to a 2× working concentration in the appropriate Kinase Buffer (see section Kinase Specific Assay Conditions for a complete description).
(§5) All ATP Solutions are diluted to a 4× working concentration in Kinase Buffer (50 mM HEPES pH 7.5, 0.01% BRIJ-35, 10 mM MgCl2, 1 mM EGTA). ATP Km apparent is previously determined using a Z″-LYTE assay.
(§6) The Development Reagent is diluted in Development Buffer (see section Kinase-Specific Assay Conditions—Direct and Cascade for a complete description).
(§7) Bar-coded Corning, low volume NBS, black 384-well plate (Corning Cat. #4514) • 1. 100 nL—100× Test Compound in 100% DMSO • 2. 2.4 μL—Kinase buffer • 3. 5 μL—2× Peptide/Kinase Mixture • 4. 2.5 μL—4×ATP Solution • 5. 30—second plate shake • 6. 60—minute Kinase Reaction incubation at room temperature • 7. 5 μL—Development Reagent Solution • 8. 30—second plate shake • 9. 60—minute Development Reaction incubation at room temperature • 10. Read on fluorescence plate reader and analyze the data Z′-LYTE Assay Controls
(§8) SelectScreen Kinase Profiling Service uses XLfit from IDBS. The dose response curve is curve fit to model number 205 (sigmoidal dose-response model).
(§9) The 2×CSF1R (FMS)/Tyr 01 mixture is prepared in 50 mM HEPES pH 7.5, 0.01% BRIJ-35, 10 mM MgCl2, 1 mM EGTA. The final 10 μL Kinase Reaction consists of 0.2-40 ng CSF1R (FMS) and 2 μM Tyr 01 in 50 mM HEPES pH 7.5, 0.01% BRIJ-35, 10 mM MgCl2, 1 mM EGTA. After the 1 hour Kinase Reaction incubation, 5 μL of a 1:256 dilution of Development Reagent B is added.

[2] = biological target: PDGFRA (PDGFR alpha) (Homo sapiens, UniProt P16234); test: Z'-LYTE SelectScreen biochemical kinase assay PDGFRA (PDGFR alpha)
Description: as §1, §2, §3, §4, §5, §6, §7, §8
The 2×PDGFRA (PDGFR alpha)/Tyr 04 mixture is prepared in 50 mM HEPES pH 7.5, 0.01% BRIJ-35, 10 mM MgCl2, 4 mM MnCl2, 1 mM EGTA, 2 mM DTT. The final 10 μL Kinase Reaction consists of 1.54-22.6 ng PDGFRA (PDGFR alpha) and 2 μM Tyr 04 in 50 mM HEPES pH 7.5, 0.01% BRIJ-35, 10 mM MgCl2, 2 mM MnCl2, 1 mM EGTA, 1 mM DTT. After the 1 hour Kinase Reaction incubation, 5 μL of a 1:64 dilution of Development Reagent B is added.

[3] = biological target: PTK2 (FAK) (Homo sapiens, UniProt Q05397); test: Z'-LYTE SelectScreen biochemical kinase assay PTK2 (FAK)
Description: as §1, §2, §3, §4, §5, §6, §7, §8
as §9, with “The 2×PTK2 (FAK)/Tyr 07” for “The 2×CSF1R (FMS)/Tyr 01”, “of 12.5-100” for “of 0.2-40”, “ng PTK2 (FAK)” for “ng CSF1R (FMS)”, “Tyr 07” for “Tyr 01”, “a 1:16” for “a 1:256”

[4] = biological target: LYN B (Homo sapiens, UniProt P07948); test: Z'-LYTE SelectScreen biochemical kinase assay LYN B
Description: as §1, §2, §3, §4, §5, §6, §7, §8
The 2×LYN B/Tyr 02 mixture is prepared in 50 mM HEPES pH 7.5, 0.01% BRIJ-35, 10 mM MgCl2, 1 mM EGTA. The final 10 μL Kinase Reaction consists of 0.85-14.8 ng LYN B and 2 μM Tyr 02 in 50 mM HEPES pH 7.5, 0.01% BRIJ-35, 10 mM MgCl2, 1 mM EGTA. After the 1 hour Kinase Reaction incubation, 5 μL of a 1:128 dilution of Development Reagent A is added.

[5] = 10 μmolar compound concentration, ATP at Km app, read-out: CSF1R (FMS) inhibition
[6] = read-out: % Inhibition mean CSF1R (FMS)
[7] = 10 μmolar compound concentration, ATP at Km app, read-out: PDGFRA (PDGFR alpha) inhibition
[8] = read-out: % Inhibition mean PDGFRA (PDGFR alpha)
[9] = 10 μmolar compound concentration, ATP at Km app, read-out: PTK2 (FAK) inhibition
[10] = read-out: % Inhibition mean PTK2 (FAK)
[11] = 10 μmolar compound concentration, ATP at Km app, read-out: LYN B inhibition
[12] = read-out: % Inhibition mean LYN B

CSF1R (FMS), sequence (P07333 20-972): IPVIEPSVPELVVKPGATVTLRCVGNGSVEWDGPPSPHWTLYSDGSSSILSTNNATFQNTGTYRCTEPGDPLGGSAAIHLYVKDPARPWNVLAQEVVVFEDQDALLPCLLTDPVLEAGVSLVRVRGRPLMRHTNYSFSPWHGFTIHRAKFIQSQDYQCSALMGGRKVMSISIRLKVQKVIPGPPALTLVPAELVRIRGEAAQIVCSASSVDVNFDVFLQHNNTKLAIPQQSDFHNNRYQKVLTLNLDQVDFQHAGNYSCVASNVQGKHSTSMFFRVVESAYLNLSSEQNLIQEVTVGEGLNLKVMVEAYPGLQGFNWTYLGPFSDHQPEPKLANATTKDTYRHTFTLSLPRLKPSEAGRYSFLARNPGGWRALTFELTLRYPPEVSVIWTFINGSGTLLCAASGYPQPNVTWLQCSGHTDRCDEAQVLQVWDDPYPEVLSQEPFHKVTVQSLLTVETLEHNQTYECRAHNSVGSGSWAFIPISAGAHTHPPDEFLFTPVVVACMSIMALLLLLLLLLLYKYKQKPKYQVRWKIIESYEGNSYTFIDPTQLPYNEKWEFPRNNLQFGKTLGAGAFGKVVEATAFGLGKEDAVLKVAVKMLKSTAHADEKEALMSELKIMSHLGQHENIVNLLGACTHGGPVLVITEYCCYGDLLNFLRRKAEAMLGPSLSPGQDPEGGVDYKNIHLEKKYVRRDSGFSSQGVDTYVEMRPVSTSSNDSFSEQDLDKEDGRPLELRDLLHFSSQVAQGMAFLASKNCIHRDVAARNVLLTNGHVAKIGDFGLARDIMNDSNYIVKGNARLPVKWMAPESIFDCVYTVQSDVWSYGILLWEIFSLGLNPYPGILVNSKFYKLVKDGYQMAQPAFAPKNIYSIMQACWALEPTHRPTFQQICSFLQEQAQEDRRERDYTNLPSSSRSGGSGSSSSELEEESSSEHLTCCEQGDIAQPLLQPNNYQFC
PDGFRA (PDGFR alpha), sequence (P16234 24-1089): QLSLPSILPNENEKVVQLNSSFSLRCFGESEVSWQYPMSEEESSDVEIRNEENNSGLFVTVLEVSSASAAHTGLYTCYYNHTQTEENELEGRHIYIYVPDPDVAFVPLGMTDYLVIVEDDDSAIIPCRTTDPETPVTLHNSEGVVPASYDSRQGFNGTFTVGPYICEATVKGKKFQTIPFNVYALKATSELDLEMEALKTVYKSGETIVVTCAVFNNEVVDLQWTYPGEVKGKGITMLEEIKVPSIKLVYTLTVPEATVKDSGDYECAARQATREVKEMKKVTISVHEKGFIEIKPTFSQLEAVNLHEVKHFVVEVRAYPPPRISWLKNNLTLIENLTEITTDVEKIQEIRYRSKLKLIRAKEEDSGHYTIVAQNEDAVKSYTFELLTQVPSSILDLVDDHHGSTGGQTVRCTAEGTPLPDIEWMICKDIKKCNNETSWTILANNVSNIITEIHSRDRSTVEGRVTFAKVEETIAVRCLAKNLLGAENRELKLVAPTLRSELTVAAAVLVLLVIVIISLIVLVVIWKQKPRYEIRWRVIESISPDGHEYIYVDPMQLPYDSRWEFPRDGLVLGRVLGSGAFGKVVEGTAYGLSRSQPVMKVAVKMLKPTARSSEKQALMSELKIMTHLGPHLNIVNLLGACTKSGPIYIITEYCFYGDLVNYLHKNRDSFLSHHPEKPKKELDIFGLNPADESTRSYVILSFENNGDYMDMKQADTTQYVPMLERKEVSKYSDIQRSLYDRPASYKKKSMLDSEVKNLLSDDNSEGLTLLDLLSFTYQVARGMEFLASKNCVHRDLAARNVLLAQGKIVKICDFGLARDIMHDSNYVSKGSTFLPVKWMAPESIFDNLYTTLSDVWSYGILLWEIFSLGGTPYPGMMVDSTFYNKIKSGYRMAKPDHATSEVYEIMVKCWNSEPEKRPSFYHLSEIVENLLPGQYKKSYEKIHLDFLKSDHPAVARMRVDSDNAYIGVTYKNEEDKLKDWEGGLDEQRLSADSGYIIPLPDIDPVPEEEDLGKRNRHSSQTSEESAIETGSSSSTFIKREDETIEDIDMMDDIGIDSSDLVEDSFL
PTK2 (FAK), sequence (Q05397 whole entry): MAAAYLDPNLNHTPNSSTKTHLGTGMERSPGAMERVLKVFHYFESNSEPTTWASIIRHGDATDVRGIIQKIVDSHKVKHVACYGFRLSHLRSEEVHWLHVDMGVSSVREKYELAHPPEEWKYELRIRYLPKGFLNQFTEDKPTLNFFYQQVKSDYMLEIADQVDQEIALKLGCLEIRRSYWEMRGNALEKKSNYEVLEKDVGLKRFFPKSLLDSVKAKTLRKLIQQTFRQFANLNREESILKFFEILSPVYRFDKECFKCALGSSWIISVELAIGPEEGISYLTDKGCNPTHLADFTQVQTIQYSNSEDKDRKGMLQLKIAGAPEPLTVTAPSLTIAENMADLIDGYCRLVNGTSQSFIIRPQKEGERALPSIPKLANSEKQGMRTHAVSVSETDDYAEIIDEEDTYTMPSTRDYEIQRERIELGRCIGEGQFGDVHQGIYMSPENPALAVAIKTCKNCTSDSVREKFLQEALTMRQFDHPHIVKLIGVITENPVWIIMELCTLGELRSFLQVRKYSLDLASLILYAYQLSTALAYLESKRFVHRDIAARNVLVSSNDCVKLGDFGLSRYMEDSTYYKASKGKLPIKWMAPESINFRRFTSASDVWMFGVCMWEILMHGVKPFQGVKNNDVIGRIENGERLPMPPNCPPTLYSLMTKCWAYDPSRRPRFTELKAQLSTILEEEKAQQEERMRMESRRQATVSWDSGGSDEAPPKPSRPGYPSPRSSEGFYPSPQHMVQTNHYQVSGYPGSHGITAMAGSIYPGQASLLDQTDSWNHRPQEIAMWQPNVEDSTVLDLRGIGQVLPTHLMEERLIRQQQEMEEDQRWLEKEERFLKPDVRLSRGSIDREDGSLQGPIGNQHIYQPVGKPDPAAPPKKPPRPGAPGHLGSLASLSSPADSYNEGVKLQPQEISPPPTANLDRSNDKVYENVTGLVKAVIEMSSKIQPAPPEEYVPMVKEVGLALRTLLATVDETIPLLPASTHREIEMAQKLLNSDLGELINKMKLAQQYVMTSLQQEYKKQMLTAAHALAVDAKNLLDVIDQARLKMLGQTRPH
LYN B, sequence (P07948 1-491 isoform P07948-2): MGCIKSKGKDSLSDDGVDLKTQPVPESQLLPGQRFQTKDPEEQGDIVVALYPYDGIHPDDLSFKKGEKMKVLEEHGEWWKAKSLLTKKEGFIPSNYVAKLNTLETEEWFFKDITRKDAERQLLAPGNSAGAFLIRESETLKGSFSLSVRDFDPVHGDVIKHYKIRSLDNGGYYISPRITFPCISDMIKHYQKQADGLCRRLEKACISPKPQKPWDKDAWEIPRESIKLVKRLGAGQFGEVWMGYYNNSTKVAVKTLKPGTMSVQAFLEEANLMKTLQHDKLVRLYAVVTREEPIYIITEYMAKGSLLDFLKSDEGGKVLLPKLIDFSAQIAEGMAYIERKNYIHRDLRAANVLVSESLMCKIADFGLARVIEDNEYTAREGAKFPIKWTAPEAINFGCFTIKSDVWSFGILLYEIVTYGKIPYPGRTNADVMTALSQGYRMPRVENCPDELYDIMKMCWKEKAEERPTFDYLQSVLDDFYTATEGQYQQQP

Row | Compound | inhibition at 10 µM [1, 5] [%] | inhibition at 10 µM [1, 6] [%] | inhibition at 10 µM [2, 7] [%] | inhibition at 10 µM [2, 8] [%] | inhibition at 10 µM [3, 9] [%] | inhibition at 10 µM [3, 10] [%] | inhibition at 10 µM [4, 11] [%] | inhibition at 10 µM [4, 12] [%]
1 | Cc1cc(F)ccc1-c1cccn2nc(NC3CCc4c(cnn4CC(C)C)C3)nc12 (stereo not shown) [Example 45, [8-(4-fluoro-2-methyl-phenyl)-[1,2,4]triazolo[1,5-a]pyridine-2-yl]-(1-isobutyl-4,5,6,7-tetrahydro-1H-indazol-5-yl)-amine] | 40 to 80 | 40 | < 40 | 30 | < 40 | 20 | < 40 | 15
2 | CCn1ncc2c1CC[C@@H](Nc1nc3c(-c4ccc(F)c(Cl)c4)cccn3n1)C2 [Example R-61, (R)-[8-(3-Chloro-4-fluoro-phenyl)-[1,2,4]triazolo[1,5-a]pyridine-2-yl]-(1-ethyl-4,5,6,7-tetrahydro-1H-indazol-5-yl)-amine] | < 40 | 18 | < 40 | 18 | < 40 | 16 | < 40 | 17
3 | CCn1ncc2c1CCC(Nc1nc3c(-c4ccc(C)nc4)cccn3n1)C2 (stereo not shown) [Example 67, (1-Ethyl-4,5,6,7-tetrahydro-1H-indazol-5-yl)-[8-(6-methyl-pyridin-3-yl)-[1,2,4]triazolo[1,5-a]pyridine-2-yl]-amine] | < 40 | 29 | < 40 | 20 | < 40 | 27 | < 40 | 20
4 | CCn1ncc2c1C(C)CC(Nc1nc3c(-c4cc(F)c(F)c(F)c4)cccn3n1)C2 (stereo not shown) [Example 49, (1-Ethyl-7-methyl-4,5,6,7-tetrahydro-1H-indazol-5-yl)-[8-(3,4,5-trifluoro-phenyl)-[1,2,4]triazolo[1,5-a]pyridine-2-yl]-amine] | < 40 | 34 | < 40 | 29 | < 40 | 32 | < 40 | 25

Other lines, results leading:

Row | inhibition at 10 µM [1, 5] [%] | inhibition at 10 µM [1, 6] [%] | inhibition at 10 µM [2, 7] [%] | inhibition at 10 µM [2, 8] [%] | inhibition at 10 µM [3, 9] [%] | inhibition at 10 µM [3, 10] [%] | inhibition at 10 µM [4, 11] [%] | inhibition at 10 µM [4, 12] [%] | Compound
5 | 40 to 80 | 42 | < 40 | 8 | < 40 | 13 | < 40 | 17 | Cc1cc(F)ccc1-c1cccn2nc(NC3CCc4c(cnn4C)C3)nc12 (stereo not shown) [Example 10, [8-(4-fluoro-2-methyl-phenyl)-[1,2,4]triazolo[1,5-a]pyridine-2-yl]-(1-methyl-4,5,6,7-tetrahydro-1H-indazol-5-yl)-amine]
6 | < 40 | 27 | < 40 | 30 | < 40 | 14 | < 40 | 15 | CCc1nn(C)c2c1CCC(Nc1nc3c(-c4ccc(F)cc4C)cccn3n1)C2 (stereo not shown) [Example 54, (3-Ethyl-1-methyl-4,5,6,7-tetrahydro-1H-indazol-6-yl)-[8-(4-fluoro-2-methyl-phenyl)-[1,2,4]triazolo[1,5-a]pyridine-2-yl]-amine]
7 | < 40 | 34 | < 40 | 12 | < 40 | 26 | < 40 | 19 | CCn1ncc2c1CCC(Nc1nc3c(-c4ccc(F)cc4C)cccn3n1)C2 (stereo not shown) [Example 42, (1-Ethyl-4,5,6,7-tetrahydro-1H-indazol-5-yl)-[8-(4-fluoro-2-methyl-phenyl)-[1,2,4]triazolo[1,5-a]pyridine-2-yl]-amine]
8 | < 40 | 9 | < 40 | 14 | < 40 | 27 | < 40 | 7 | CCn1nnc2c1CCC(Nc1nc3c(-c4ccc(F)cc4C)cccn3n1)C2 (stereo not shown) [Example 51, (1-Ethyl-4,5,6,7-tetrahydro-1H-benzotriazol-5-yl)-[8-(4-fluoro-2-methyl-phenyl)-[1,2,4]triazolo[1,5-a]pyridine-2-yl]-amine]
